From patent USRE48461E1, “Modulation of androgen receptor expression” (Ionis Pharmaceuticals, Inc., priority 2012, dated 2021)

Columns and labels:
Assay type in all cases: cell-based, human
LNCaP cells = assay: LNCaP cell proliferation (complete or CSS+DHT medium); conditions: 5 days; for Proliferation (% untreated control) in LNCaP cells cultured in CSS + DHT medium: CSS + 1 nM DHT medium
Method: After a treatment period of 5 days in complete medium or CSS+1 nM DHT medium, the proliferative capacity of the cancer cells was measured with using CellTiter 96® AQueous One Solution or CellTiter-Glo® solution Cell Proliferation kit (Promega), following the manufacturer's instructions. […] Treatment with ISIS oligonucleotides in CSS+DHT medium reduced the proliferative capacity to a greater extent than treatment with MVD-3100. The proliferative capacity of cells cultured in CSS medium without DHT is 17% of untreated control levels.

22RV1 cells = assay: 22RV1 cell proliferation, ASO in combination with MDV3100 (Example 22); conditions: for Proliferation (% untreated control) in 22RV1 without MDV-3100: RNAiMAX, 3 days
Method: 22RV1 cells were plated at 2,000 cells per well in 5% CSS medium for 48 hours. […] ISIS 549148 was included as a negative control. […] After a treatment period of 3 days, the proliferative capacity of the cancer cells was measured with CellTiter 96® AQueous One Solution Cell Proliferation kit (Promega), following the manufacturer's instructions. Results are presented in Tables 58-62 as percent inhibition of proliferation, relative to non-treated cells.

C4-2B cells = assay: C4-2B cell proliferation, ASO in combination with MDV3100 (Example 21)
Method: C4-2B cells were plated at 1,000 cells per well. […] ISIS 549148 was included as a negative control. […] After a treatment period of 5 days, the proliferative capacity of the cancer cells was measured with CellTiter 96® AQueous One Solution Cell Proliferation kit (Promega), following the manufacturer's instructions. […]

GGCTACTACGCCGTCA (3-10-3 (S)-cEt gapmer, chemistry not fully specified) [ISIS 549148, reference compound]
Proliferation (% untreated control) in LNCaP cells cultured in CSS + DHT medium (LNCaP cells; 0.04 μM): 112 % untreated control
Proliferation (% untreated control) in LNCaP cells cultured in CSS + DHT medium (LNCaP cells; 0.2 μM): 96 % untreated control
Proliferation (% untreated control) in LNCaP cells cultured in CSS + DHT medium (LNCaP cells; 1 μM): 95 % untreated control
Proliferation (% untreated control) in LNCaP cells cultured in CSS + DHT medium (LNCaP cells; 5.0 μM): 89 % untreated control
Proliferation (% untreated control) in LNCaP cells cultured in complete medium (LNCaP cells; 0.04 μM): 101 % untreated control
Proliferation (% untreated control) in LNCaP cells cultured in complete medium (LNCaP cells; 0.2 μM): 95 % untreated control
Proliferation (% untreated control) in LNCaP cells cultured in complete medium (LNCaP cells; 1 μM): 94 % untreated control
Proliferation (% untreated control) in LNCaP cells cultured in complete medium (LNCaP cells; 5.0 μM): 110 % untreated control
Proliferation (% untreated control) in 22RV1 cells with 0.04 μM MDV-3100 (22RV1 cells; ASO dose 0.4 nM + 0.04 μM MDV-3100): 106 % untreated control
Proliferation (% untreated control) in 22RV1 cells with 0.2 μM MDV-3100 (22RV1 cells; ASO dose 0.4 nM + 0.2 μM MDV-3100): 101 % untreated control
Proliferation (% untreated control) in 22RV1 cells with 1.0 μM MDV-3100 (22RV1 cells; ASO dose 0.4 nM + 1.0 μM MDV-3100): 106 % untreated control
Proliferation (% untreated control) in 22RV1 cells with 5.0 μM MDV-3100 (22RV1 cells; ASO dose 0.4 nM + 5.0 μM MDV-3100): 96 % untreated control
Proliferation (% untreated control) in 22RV1 without MDV-3100 (22RV1 cells; ASO dose 0.4 nM): 109 % untreated control
Proliferation (% untreated control) in 22RV1 cells with 0.04 μM MDV-3100 (22RV1 cells; ASO dose 1.34 nM + 0.04 μM MDV-3100): 106 % untreated control
Proliferation (% untreated control) in 22RV1 cells with 0.2 μM MDV-3100 (22RV1 cells; ASO dose 1.34 nM + 0.2 μM MDV-3100): 115 % untreated control
Proliferation (% untreated control) in 22RV1 cells with 1.0 μM MDV-3100 (22RV1 cells; ASO dose 1.34 nM + 1.0 μM MDV-3100): 95 % untreated control
Proliferation (% untreated control) in 22RV1 cells with 5.0 μM MDV-3100 (22RV1 cells; ASO dose 1.34 nM + 5.0 μM MDV-3100): 102 % untreated control
Proliferation (% untreated control) in 22RV1 without MDV-3100 (22RV1 cells; ASO dose 1.34 nM): 109 % untreated control
Proliferation (% untreated control) in 22RV1 cells with 0.04 μM MDV-3100 (22RV1 cells; ASO dose 4.0 nM + 0.04 μM MDV-3100): 100 % untreated control
Proliferation (% untreated control) in 22RV1 cells with 0.2 μM MDV-3100 (22RV1 cells; ASO dose 4.0 nM + 0.2 μM MDV-3100): 110 % untreated control
Proliferation (% untreated control) in 22RV1 cells with 1.0 μM MDV-3100 (22RV1 cells; ASO dose 4.0 nM + 1.0 μM MDV-3100): 98 % untreated control
Proliferation (% untreated control) in 22RV1 cells with 5.0 μM MDV-3100 (22RV1 cells; ASO dose 4.0 nM + 5.0 μM MDV-3100): 98 % untreated control
Proliferation (% untreated control) in 22RV1 without MDV-3100 (22RV1 cells; ASO dose 4.0 nM): 109 % untreated control
Proliferation (% untreated control) in 22RV1 cells with 0.04 μM MDV-3100 (22RV1 cells; ASO dose 13.4 nM + 0.04 μM MDV-3100): 85 % untreated control
Proliferation (% untreated control) in 22RV1 cells with 0.2 μM MDV-3100 (22RV1 cells; ASO dose 13.4 nM + 0.2 μM MDV-3100): 96 % untreated control
Proliferation (% untreated control) in 22RV1 cells with 1.0 μM MDV-3100 (22RV1 cells; ASO dose 13.4 nM + 1.0 μM MDV-3100): 82 % untreated control
Proliferation (% untreated control) in 22RV1 cells with 5.0 μM MDV-3100 (22RV1 cells; ASO dose 13.4 nM + 5.0 μM MDV-3100): 85 % untreated control
Proliferation (% untreated control) in 22RV1 without MDV-3100 (22RV1 cells; ASO dose 13.4 nM): 99 % untreated control
Proliferation (% untreated control) in C4-2B with 0.08 μM MDV-3100 (C4-2B cells; ASO dose 0.04 μM + 0.08 μM MDV-3100): 125 % untreated control
Proliferation (% untreated control) in C4-2B with 0.4 μM MDV-3100 (C4-2B cells; ASO dose 0.04 μM + 0.4 μM MDV-3100): 110 % untreated control
Proliferation (% untreated control) in C4-2B with 2.0 μM MDV-3100 (C4-2B cells; ASO dose 0.04 μM + 2.0 μM MDV-3100): 40 % untreated control
Proliferation (% untreated control) in C4-2B with […] MDV-3100 (C4-2B cells; ASO dose 0.04 μM + […] MDV-3100): 107 % untreated control
Proliferation (% untreated control) in C4-2B without MDV-3100 (C4-2B cells; ASO dose 0.04 μM, 5 days): 117 % untreated control
Proliferation (% untreated control) in C4-2B with 0.08 μM MDV-3100 (C4-2B cells; ASO dose 0.08 μM + 0.08 μM MDV-3100): 84 % untreated control
Proliferation (% untreated control) in C4-2B with 0.4 μM MDV-3100 (C4-2B cells; ASO dose 0.08 μM + 0.4 μM MDV-3100): 89 % untreated control
Proliferation (% untreated control) in C4-2B with 2.0 μM MDV-3100 (C4-2B cells; ASO dose 0.08 μM + 2.0 μM MDV-3100): 47 % untreated control
Proliferation (% untreated control) in C4-2B with […] MDV-3100 (C4-2B cells; ASO dose 0.08 μM + […] MDV-3100): 110 % untreated control
